# Assays:
# H1L1.1 cells = assay: Dose response of luciferase induction, 24 h (FIGS. 3-6, Table 3); assay type: cell-based, mouse; settings: for Emax / EC50: Mus musculus; for Emax / Induction of luciferase activity: mono-ortho-PCBs, FIG. 4; for Emax: vs 1 nM TCDD, read-out: Luciferase induction as % of that observed with TCDD; for Maximal luciferase expression / Relative inducing potency versus TCDD: fused-ring PAHs, FIG. 6
# Procedure: The graph of FIG. 3 illustrates the dose dependence of luciferase induction in the mouse H1L1.1 cells measured following […] of the cells to increasing concentrations of TCDD or other toxic compounds (which others are discussed in more detail below).
# More particularly, the stable cell clones for the mouse H1L1.1 cells (about 90% confluent) were plated into six-well microplates (purchased from Corning) and incubated for 24 hours with the indicated concentration of the particular toxin solubilized in DMSO. Then, the cells were lysed with 100 μl of lysis buffer and luciferase activity was determined as described above. Values represent the mean ± the standard evaluation of at least triplicate determinations.
# As set out in Table 3, the responsiveness and sensitivity of the mouse H1L1.1 cells was compared to the responsiveness and sensitivity of certain other published PCDH cell bioassay systems. The other systems were a recombinant HepG2 (101L) cell line that induces firefly luciferase (see, Postlind et al., supra), a recombinant Hepa1 (T13) cell line that induces PAP activity (see El-Fouly et al., supra), and a rat H4IIE cell line that induces EROD activity (see, Kennedy et al., supra). The ED50 values were calculated by probit analysis of the dose-response data.
# As set out in the graphs of FIGS. 3-6, since one use of the stably transfected mouse H1L1.1 cell lines is for detection and relative quantitative analysis of TCDD and various dioxin-like compounds (i.e., AhR ligands), the ability of various compounds besides TCDD to induce luciferase activity in the mouse H1L1.1 cells was examined. The experiments performed to determine the dose-response curves for the toxins other than TCDD set out in the graphs of FIGS. 3-6 were performed in essentially the same manner as the experiments described above to determine the dose response curve of TCDD set out in the graph of FIG. 3.
# Specifically, with respect to the data illustrated in the graph of FIG. 3, cells were incubated with increasing concentrations of test chemical and luciferase activity determined after 24 hours.
# It should be noted that the low numerical values of luciferase activity from induction by various PCBs reported in FIGS. 4 and 5, compared to the values reported in the other figures, are not due to actual low levels of luciferase induction, but to the fact that the detection of luminescence in these experiments was performed using a different instrument from that used in the other experiments.
# However, the relative magnitude of luciferase induction by the mono-ortho-PCBs (FIG. 4) and the AROCLORS (FIG. 5) was established by directly comparing the resulting activity to that produced by a maximally inducing dose of TCDD (1 nM solubilized in DMSO) measured in the same instrument.
# [1] = test system: guinea pig G16L1.1c8 cells; assay: Antagonism of TCDD luciferase induction by 2,2',5,5'-TCB (FIG. 7); assay type: cell-based; settings: 24 h
# Procedure: (§1) The bar graph of FIG. 7 illustrates that 2,2',5,5'-TCB antagonizes induction of luciferase activity by TCDD in a species-specific manner, and thus, 2,2',5,5'-TCB is not a TCDD-like compound as defined herein. In particular, six-well plates containing the indicated cell lines were incubated with DMSO (control), with TCDD (5 nM), with 2,2',5,5'-TCB (25 μM), or with both TCDD (5 nM) and 2,2',5,5'-TCB (25 μM) for 24 hours. Luciferase activity in cell lysates was determined as described above. Values represent the mean ± the standard evaluation of at least triplicate determinations.
# human HG2L1.1c3 cells = assay: as above; assay type: cell-based; settings: 24 h
# Procedure: as §1
# mouse H1L1.1 cells = assay: as above; assay type: cell-based
# Procedure: as §1
# rat H4L1.1c4 cells = assay: as above; assay type: cell-based; settings: 24 h
# Procedure: as §1
# mouse AhR = assay: Competitive inhibition of TCDD binding to AhR
# rat AhR = assay: Competitive inhibition of TCDD binding to AhR
# guinea pig AhR = assay: Competitive inhibition of TCDD binding to AhR
smiles,measurement,setting,value
"Clc1cc2c(cc1Cl)Oc1c(Cl)c(Cl)cc(Cl)c1O2 [1,2,4,7,8-PCDD, 1,2,4,7,8-pentachlorodibenzo-p-dioxin]",Luciferase activation,"H1L1.1 cells; up to 10 μM, 24 h, FIG. 3",no luciferase activation
"Clc1ccc(Cl)c(-c2cc(Cl)ccc2Cl)c1 [2,2',5,5'-TCB, 2,2',5,5'-tetrachlorobiphenyl]","Effect of 2,2',5,5'-TCB alone on luciferase activity",[1]; 25 μM,no significant effect
same,"Effect of 2,2',5,5'-TCB on TCDD luciferase induction",[1]; TCB 25 μM + TCDD 5 nM,not affected
same,"Effect of 2,2',5,5'-TCB alone on luciferase activity",human HG2L1.1c3 cells; 25 μM,no significant effect
same,"Effect of 2,2',5,5'-TCB on TCDD luciferase induction",human HG2L1.1c3 cells; TCB 25 μM + TCDD 5 nM,not affected
same,"Effect of 2,2',5,5'-TCB alone on luciferase activity","mouse H1L1.1 cells; 25 μM, 24 h",no significant effect
same,Luminescence response of H1L1.1 cells,"mouse H1L1.1 cells; 2,2',5,5'-TCB alone, in words",will not cause the novel mouse H1L1.1 cell line to respond with luminescence
same,Reduction of TCDD luciferase induction,"mouse H1L1.1 cells; TCB 25 μM + TCDD 5 nM, 24 h",86%
same,Antagonism when added with TCDD,mouse H1L1.1 cells; in words,acts as an antagonist
same,"Effect of 2,2',5,5'-TCB alone on luciferase activity",rat H4L1.1c4 cells; 25 μM,no significant effect
same,Reduction of TCDD luciferase induction,rat H4L1.1c4 cells; TCB 25 μM + TCDD 5 nM,47%
same,Competitive inhibition of TCDD binding,mouse AhR,competitively to inhibit TCDD binding
same,Competitive inhibition of TCDD binding,rat AhR,competitively to inhibit TCDD binding
same,Competitive inhibition of TCDD binding,guinea pig AhR,but not to the guinea pig and human AhRs
"Clc1ccc(-c2cc(Cl)c(Cl)c(Cl)c2Cl)cc1Cl [2,3,3',4,4',5-HCB, 2,3,3',4,4',5-hexachlorobiphenyl]",Emax,H1L1.1 cells; 24 h,20 to 30%
same,Induction of luciferase activity,H1L1.1 cells; 24 h,10 fold
"Clc1ccc(-c2cc(Cl)c(Cl)c(Cl)c2Cl)cc1 [2,3,4,4',5-PCB, 2,3,4,4',5-pentachlorobiphenyl]",Emax,H1L1.1 cells; 24 h,20 to 30%
same,Induction of luciferase activity,H1L1.1 cells; 24 h,10 fold
"Clc1cc2oc3c(Cl)c(Cl)c(Cl)cc3c2cc1Cl [2,3,4,7,8-PCDF, 2,3,4,7,8-pentachlorodibenzofuran]",Level of luciferase induction relative to TCDD,"H1L1.1 cells; 24 h, FIG. 3",comparable levels
same,EC50,"H1L1.1 cells; 24 h, FIG. 3",~2 nM
"Clc1cc2oc3cc(Cl)c(Cl)cc3c2cc1Cl [2,3,7,8-TCDF, 2,3,7,8-tetrachlorodibenzofuran]",Level of luciferase induction relative to TCDD,"H1L1.1 cells; 24 h, FIG. 3",comparable levels
same,EC50,"H1L1.1 cells; 24 h, FIG. 3",~0.05 nM
"Clc1ccc(-c2cc(Cl)c(Cl)c(Cl)c2)cc1Cl [3,3',4,4',5-PCB, 3,3',4,4',5-pentachlorobiphenyl]",Level of luciferase induction relative to TCDD,"H1L1.1 cells; 24 h, FIG. 3",comparable maximal levels
same,EC50,"H1L1.1 cells; 24 h, FIG. 3",2 nM
"Clc1ccc(-c2ccc(Cl)c(Cl)c2)cc1Cl [3,3',4,4'-TCB, 3,3',4,4'-tetrachlorobiphenyl]",Level of luciferase induction relative to TCDD,"H1L1.1 cells; 24 h, FIG. 3",comparable maximal levels
same,EC50,"H1L1.1 cells; 24 h, FIG. 3",100 nM
"Cc1ccc2cc3c(ccc4ccccc43)c3c2c1CC3 [3-MC, 3-methylcholanthrene]",Maximal luciferase expression,H1L1.1 cells,maximal luciferase expression was not reached
same,Relative inducing potency versus TCDD,H1L1.1 cells,substantially less potent than TCDD
"c1ccc2cc3c(ccc4ccccc43)cc2c1 [BA, benz[a]anthracene]",Maximal luciferase expression,H1L1.1 cells,maximal luciferase expression was not reached
same,Relative inducing potency versus TCDD,H1L1.1 cells,substantially less potent than TCDD
"O=c1cc(-c2ccccc2)oc2ccc3ccccc3c12 [BNF, β-naphthoflavone]",Maximal luciferase expression,H1L1.1 cells,maximal luciferase expression was not reached
same,Relative inducing potency versus TCDD,H1L1.1 cells,substantially less potent than TCDD

# — US5854010A, “Bioassay for detecting 2,3,7,8-tetrachlorodibenzo-para-dioxin and TCDD-like compounds and novel recombinant cell line useful therefor” (priority 1997, dated 1998)
